Source: patent US20060094660A1, “Inhibitor of the shh signalling patway and a testosterone supressing agent for the treatment of cancer” (priority 2002, published 2006)
Values joined by “and” are separate entries in the source; they are usually repeats but may differ in a detail not shown here. Identical values can stand only once. Like-named read-outs stand apart in the source and are kept apart here.

Assays:
ventral prostate (VP) [1] = assay: Organ culture of P0 rat VPs: peripheral epithelial bud tips per unit perimeter; format: cell-based; details: for mean bud tips per unit perimeter: six days; for mean bud tips per 1000 pixels perimeter: 3 days
Description: We chose to analyse the effect of Cy on the prostatic epithelia of VPs grown in vitro. Epithelial bud tips situated at the periphery of VPs (total of 60 VPs from each of four treatment groups and 16 independent experiments) were counted and expressed as a ratio to organ perimeter, to account for the changes in organ size after treatments (FIG. 5C). The addition of Cy to organs cultured −T caused a significant increase in the number of peripheral tips per unit perimeter (−T=60.16±/−0.97 mean bud tips per unit perimeter versus −T +Cy=74.47+/−1.07; Student's t-test, P=1.31 e^−17). […] It is possible that the number of tips induced by T or Cy were the maximum for the in vitro system, thus additive effects may not be apparent due to the limitations of the system. […] An increase in peripheral tip number was also observed in VPs cultured with anti-SHH antibody (5E1) in the absence of T (−T=62.13+/−0.82 versus −T+5E1=93.03+/−1.08), with a similar peripheral tip number being observed between VPs cultured +T and +T+5E1 (+T=74.32+/−0.69 versus +T+5E1=79.21+/−1.28).
The number of peripheral bud tips from the cultured VPs was counted and expressed as a ratio to perimeter (FIG. 10C).

UGS explants = details: for prostatic buds: 7 days
Description: As the prostate was not well developed in either mutant (FIG. 9B) or wildtype males at this stage, UGS explants from both Shh null mice and their littermates were grown in vitro to determine if prostatic budding could be induced (n=3).

ventral prostate (VP) [2] = system: ventral prostate (VP)
Description: Serum-free organ culture of P0 Wistar rat VPs was performed as previously described (Sugimura et al., 1996). […] The two-dimensional area and perimeter of organs was measured from live captured images using NIH Image software.
P0 VPs were grown in vitro for five days in the presence (+) or absence (−) of T and with (+) or without (−) 100 μg ml^−1 anti-SHH antibody (5E1) (FIG. 4A), after which their two-dimensional area was measured (FIG. 4B).
Effect of exogenous SHH on VP growth and branching. The effects of adding recombinant SHH to VPs grown in vitro was examined (FIG. 10). VPs were grown for 3 days −/+T and −/+recombinant SHH protein (n=6).

ventral prostate (VP) [3] = assay: Organ culture of P0 rat VPs: BrdU incorporation, mitotic/proliferative index; format: cell-based; details: for % proliferative nuclei, mesenchyme: day 2; for % proliferative nuclei, epithelium: day 3
Description: (§1) Anti-CK14 antibody was diluted at 1:100, and anti-p63 antibody (Santa Cruz Biotechnologies Inc., USA) was diluted at 1:500. […] Mitotic indices were calculated by counting the number of pan-cytokeratin-positive epithelial cells that were also BrdU-positive.
[…] […] The percentage of proliferating cells was scored from three images of the peripheral tips of the organs (distal), and three images of the ducts closest to the urethra (proximal), totalling 27 distal and proximal counts for each treatment group.
The proliferative index of the epithelial and mesenchymal cell compartments was calculated for VPs cultured −/+T and −/+SHH after the addition of BrdU (FIG. 10D).

ventral prostate (VP) [4] = assay: Organ culture of P0 rat VPs: histology (Masson's trichrome) and p63/CK14 immunohistochemistry; format: cell-based; details: six days
Description: as §1
Prostatic ducts grow initially as solid cords, which then canalise, resulting in ducts that contain lumens. […] Normal prostatic ducts in rats consist of luminal secretory cells with underlying basal cells, forming a single lumen.

Shh transcripts [5] = details: explants cultured for three days; cited from earlier work
[6] = biological target: SONIC HEDGEHOG (SHH) protein, endogenous in cultured P0 Wistar rat ventral prostate (rat) (UniProt Q63673); assay: cell-based or functional assay
SONIC HEDGEHOG (SHH) protein, endogenous in cultured P0 Wistar rat ventral prostate (rat), sequence (Q63673 25-198 limits assumed): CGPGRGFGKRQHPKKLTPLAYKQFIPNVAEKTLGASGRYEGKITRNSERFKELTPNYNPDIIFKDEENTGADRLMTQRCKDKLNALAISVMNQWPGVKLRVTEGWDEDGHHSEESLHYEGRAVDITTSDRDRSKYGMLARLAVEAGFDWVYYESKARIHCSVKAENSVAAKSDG

Ptc transcripts [7] = assay: RNase protection assay, VPs grown in vitro; format: cell-based, rat; details: six days −/+T; or five days T then one day cyproterone acetate
Description: (§2) DNA templates for Shh and Ptc riboprobes were synthesised by RT-PCR from P0 UGT cDNA and subcloned into pBluescript KSII+ (Stratagene, USA). PCR primers were designed using GenBank-published cDNA sequences (Shh: GenBank Accession No. NM_017221; Primers: L—[…] (SEQ ID No 1), R—[…] (SEQ ID No 2); Ptc: GenBank Accession No. AF079162; Primers L—[…] (SEQ ID No 3), R—[…] (SEQ ID No 4)). DNA templates for Cyclophilin (Cphn) and 28S riboprobes were from Ambion, Inc., USA. ^32P-labelled anti-sense riboprobes were transcribed, and RNase protection assays performed as previously described in detail (Thomson et al., 1997). RNase protected products from Shh, Ptc, Cphn and 28S riboprobes were 269 nucleotides (nt), 322 nt, 103 nt and 155 nt respectively. Gels were imaged using a Storm phosphorimager (Molecular Dynamics, USA) and transcript abundance was determined from the intensities of bands, calculated using ImageQuant V.1.2 (Molecular Dynamics, USA).
(§3) RPAs were performed to analyse Shh and Ptc transcripts levels in VPs and URs grown in vitro. VPs were cultured for six days in the presence or absence of T; or for five days with T followed by a one-day treatment with the AR antagonist cyproterone acetate (FIG. 3B). […] Similarly, in short-term cultures of VPs (seven hours or three days), no changes in transcript levels were observed (data not shown).

Shh transcripts [8] = assay: RNase protection assay, VPs grown in vitro; format: cell-based, rat; details: six days −/+T; or five days T then one day cyproterone acetate
Description: as §2, §3

Ptc transcripts [9] = assay: RNase protection assay, female URs cultured three days; format: cell-based, rat; details: three days −/+T (10^−8 M)
Description: as §2, §3

Shh transcripts [10] = assay: as above; format: cell-based, rat; details: three days −/+T (10^−8 M)
Description: as §2, §3

CC1=C2C[C@H]3[C@@H](CC=C4C[C@@H](O)CC[C@@]43C)[C@@H]2CC[C@]12O[C@@H]1C[C@H](C)CN[C@H]1[C@H]2C [Cy, cyclopamine]
mean bud tips per unit perimeter (ventral prostate (VP) [1]; +T +Cy): 69.84+/−1.13 bud tips per unit perimeter | mean bud tips per unit perimeter (ventral prostate (VP) [1]; −T +Cy): 74.47+/−1.07 bud tips per unit perimeter | toxicity to explants (UGS explants; 5 μM Cy): toxic and caused premature organ death | toxicity to explants (UGS explants; 10 μM Cy): toxic and caused premature organ death | prostatic buds (UGS explants; +T +5 μM Cy): present | prostatic buds (UGS explants; +T +10 μM Cy): present | effect on VP cultures (ventral prostate (VP) [2]): little or no effect | optimum concentration for growth inhibition (ventral prostate (VP) [2]): 1 µM | toxicity to VP organ cultures (organs dying prematurely) (ventral prostate (VP) [2]): toxic | mitotic nuclei in distal epithelial tips (ventral prostate (VP) [3]): 13.48%+/−0.93% and 16.28%+/−0.74% | CK14 expression (ventral prostate (VP) [4]; +T +Cy): very few CK14-positive cells in distal tips | canalisation (lumens) of prostatic ducts (ventral prostate (VP) [4]; +T +Cy): exhibited lumens in distal tips | p63 expression (ventral prostate (VP) [4]; +T +Cy): confined to the basal cell layer of all distal tips | appearance of epithelial tips (ventral prostate (VP) [4]; −T +Cy): did not alter the appearance of epithelial tips

C[C@]12CCC(=O)C[C@@H]1CC[C@@H]1[C@@H]2CC[C@]2(C)[C@@H](O)CC[C@@H]12 [dihydrotestosterone]
increase in Shh transcripts (Shh transcripts [5]): five-fold

anti-SHH antibody (clone 5E1, Developmental Studies Hybridoma Bank, University of Iowa)
decrease in growth of P0 rat ventral prostate in vitro (two-dimensional area, five days of culture, 100 ug/ml antibody) [6]: 20% | decrease in testosterone-induced growth of rat ventral prostates in vitro [6]: 50%

C[C@]12CC[C@H]3[C@@H](CCC4=CC(=O)CC[C@@]43C)[C@@H]1CC[C@@H]2O [T, testosterone]
Ptc transcript abundance (Ptc transcripts [7]): No significant difference | Shh transcript abundance (Shh transcripts [8]): No significant difference | peripheral tip number (ventral prostate (VP) [1]; +T alone (5E1 experiments)): 74.32+/−0.69 | mean bud tips per unit perimeter (ventral prostate (VP) [1]; +T alone (Cy experiments)): 71.80+/−0.83 bud tips per unit perimeter | mean bud tips per 1000 pixels perimeter (ventral prostate (VP) [1]; +T alone (SHH experiments)): 83.92+/−2.25 bud tips per 1000 pixels perimeter | prostatic buds (UGS explants; +T): present | % area (2D area relative to −T) (ventral prostate (VP) [2]; +T alone (SHH experiments), 3 days): 127.05+/−5.12% | change in Ptc transcript levels (Ptc transcripts [9]): no significant change | upregulation of Shh transcripts (Shh transcripts [10]): two-and-a-half-fold | mitotic nuclei in distal epithelial tips (ventral prostate (VP) [3]; +T alone (Cy experiments), day six): 23.24%+/−1.86% | % proliferative nuclei, mesenchyme (ventral prostate (VP) [3]; +T alone (SHH experiments)): 17.81%+/−1.22% | % proliferative nuclei, epithelium (ventral prostate (VP) [3]; +T alone (SHH experiments)): 32.54%+/−1.65% | proliferation in proximal ducts (ventral prostate (VP) [3]; response to T): reduced

CC(=O)O[C@]1(C(C)=O)CC[C@H]2[C@@H]3C=C(Cl)C4=CC(=O)[C@@H]5C[C@@H]5[C@]4(C)[C@H]3CC[C@@]21C [cyproterone acetate]
Ptc transcript abundance (Ptc transcripts [7]): No significant difference | Shh transcript abundance (Shh transcripts [8]): No significant difference

SHH: recombinant SHH protein (Research Diagnostics, USA)
mean bud tips per 1000 pixels perimeter (ventral prostate (VP) [1]; +T +SHH): 68.34+/−2.57 bud tips per 1000 pixels perimeter | mean bud tips per 1000 pixels perimeter (ventral prostate (VP) [1]; −T +SHH): 48.0+/−3.35 bud tips per 1000 pixels perimeter | % area (2D area relative to −T) (ventral prostate (VP) [2]; +T +SHH, 3 days): 123.03+/−6.75% | effect on mesenchyme of cultured VPs (ventral prostate (VP) [2]; recombinant SHH, 3 days, both −/+T): expansion of the mesenchyme around the periphery of VPs | % proliferative nuclei, mesenchyme (ventral prostate (VP) [3]; +T+SHH): 20.47%+/−1.07% | % proliferative nuclei, epithelium (ventral prostate (VP) [3]; +T+SHH): 30.46%+/−1.72% | reduction of epithelial cell proliferation (ventral prostate (VP) [3]; VPs grown +T, not statistically significant): 6% | reduction of epithelial cell proliferation (ventral prostate (VP) [3]; VPs grown −T): a third | % proliferative nuclei, epithelium (ventral prostate (VP) [3]; −T +SHH): 18.62%+/−2.06% | % proliferative nuclei, mesenchyme (ventral prostate (VP) [3]; −T+SHH): 19.45%+/−1.12%
